Source: PubChem BioAssay (NCI)
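Method: 48-hour compound exposure of cells in 96-well plates, five concentrations, linear interpolation of endpoints. At the GI50, growth is halved. The concentration for full growth arrest is given as TGI.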

What was measured:
Assay in all cases: NCI-60 cell line screen, 48 h
MDA-MB-231 breast = system: MDA-MB-231 breast
786-0 renal = system: 786-0 renal
A498 renal = system: A498 renal
HOP-92 NSCLC = system: HOP-92 NSCLC
CCRF-CEM leukemia = system: CCRF-CEM leukemia
COLO 205 colon = system: COLO 205 colon
BT-549 breast = system: BT-549 breast
HCT-15 colon = system: HCT-15 colon
K-562 leukemia = system: K-562 leukemia
SF-268 CNS = system: SF-268 CNS
SF-295 CNS = system: SF-295 CNS
U251 CNS = system: U251 CNS
MALME-3M melanoma = system: MALME-3M melanoma
A549 NSCLC = system: A549 NSCLC
NCI-H23 lung = system: NCI-H23 lung
OVCAR-3 ovarian = system: OVCAR-3 ovarian
SF-539 CNS = system: SF-539 CNS
HT29 colon = system: HT29 colon
T-47D breast = system: T-47D breast
TK-10 renal = system: TK-10 renal
PC-3 prostate = system: PC-3 prostate
UACC-257 melanoma = system: UACC-257 melanoma
LOX IMVI melanoma = system: LOX IMVI melanoma
IGROV1 ovarian = system: IGROV1 ovarian
SK-MEL-2 melanoma = system: SK-MEL-2 melanoma
UO-31 renal = system: UO-31 renal
RPMI-8226 leukemia = system: RPMI-8226 leukemia
OVCAR-8 ovarian = system: OVCAR-8 ovarian
DU-145 prostate = system: DU-145 prostate
MCF7 breast = system: MCF7 breast
HCC-2998 colon = system: HCC-2998 colon
SK-MEL-28 melanoma = system: SK-MEL-28 melanoma
HCT-116 colon = system: HCT-116 colon
SR leukemia = system: SR leukemia
SN12C renal = system: SN12C renal
SNB-19 CNS = system: SNB-19 CNS
CAKI-1 renal = system: CAKI-1 renal
NCI-H226 lung = system: NCI-H226 lung
NCI-H522 lung = system: NCI-H522 lung
SK-OV-3 ovarian = system: SK-OV-3 ovarian
MDA-MB-468 breast = system: MDA-MB-468 breast
KM12 colon = system: KM12 colon
MOLT-4 leukemia = system: MOLT-4 leukemia
NCI-H460 lung = system: NCI-H460 lung
SK-MEL-5 melanoma = system: SK-MEL-5 melanoma
NCI/ADR-RES ovarian = system: NCI/ADR-RES ovarian
MDA-MB-435 = system: MDA-MB-435
EKVX NSCLC = system: EKVX NSCLC
HL-60(TB) leukemia = system: HL-60(TB) leukemia
SNB-75 CNS = system: SNB-75 CNS
RXF 393 renal = system: RXF 393 renal
HOP-62 NSCLC = system: HOP-62 NSCLC
UACC-62 melanoma = system: UACC-62 melanoma
ACHN renal = system: ACHN renal
OVCAR-5 ovarian = system: OVCAR-5 ovarian
HS 578T breast = system: HS 578T breast
SW-620 colon = system: SW-620 colon
M14 melanoma = system: M14 melanoma
OVCAR-4 ovarian = system: OVCAR-4 ovarian

N#Cc1ccc(-c2nn(-c3ccc(C(=O)O)cc3)cc2CNc2cc(Cl)cc(C(F)(F)F)c2)cc1
GI50 (MDA-MB-231 breast): 12.3 µM | TGI (MDA-MB-231 breast): 37 µM | GI50 (786-0 renal): 14.1 µM | TGI (786-0 renal): 32 µM | GI50 (A498 renal): 15.8 µM | TGI (A498 renal): 41 µM | GI50 (HOP-92 NSCLC): 3.48 µM | TGI (HOP-92 NSCLC): 15 µM | GI50 (CCRF-CEM leukemia): 4.2 µM | TGI (CCRF-CEM leukemia): 20.8 µM | GI50 (COLO 205 colon): 14 µM | TGI (COLO 205 colon): 58.6 µM | GI50 (BT-549 breast): 11.3 µM | TGI (BT-549 breast): 31.1 µM | GI50 (HCT-15 colon): 3.93 µM | TGI (HCT-15 colon): 15.8 µM | GI50 (K-562 leukemia): 3.71 µM | TGI (K-562 leukemia): > 100 µM | GI50 (SF-268 CNS): 14.3 µM | TGI (SF-268 CNS): 67 µM | GI50 (SF-295 CNS): 4.79 µM | TGI (SF-295 CNS): 22.9 µM | GI50 (U251 CNS): 7.26 µM | TGI (U251 CNS): 32.6 µM | GI50 (MALME-3M melanoma): 6.44 µM | TGI (MALME-3M melanoma): 31.9 µM | GI50 (A549 NSCLC): 7.98 µM | TGI (A549 NSCLC): 32.1 µM | GI50 (NCI-H23 lung): 5.19 µM | TGI (NCI-H23 lung): 19.4 µM | GI50 (OVCAR-3 ovarian): 4.98 µM | TGI (OVCAR-3 ovarian): 18.6 µM | GI50 (SF-539 CNS): 11.4 µM | TGI (SF-539 CNS): 24 µM | GI50 (HT29 colon): 13.5 µM | TGI (HT29 colon): 38.2 µM | GI50 (T-47D breast): 3.8 µM | TGI (T-47D breast): > 100 µM | GI50 (TK-10 renal): 17.2 µM | TGI (TK-10 renal): > 100 µM | GI50 (PC-3 prostate): 7 µM | TGI (PC-3 prostate): 35.1 µM | GI50 (UACC-257 melanoma): 7.02 µM | TGI (UACC-257 melanoma): 40.2 µM | GI50 (LOX IMVI melanoma): 5.95 µM | TGI (LOX IMVI melanoma): 20.3 µM | GI50 (IGROV1 ovarian): 10.8 µM | TGI (IGROV1 ovarian): 29.3 µM | GI50 (SK-MEL-2 melanoma): 2.96 µM | TGI (SK-MEL-2 melanoma): 9.48 µM | GI50 (UO-31 renal): 4.34 µM | TGI (UO-31 renal): 22 µM | GI50 (RPMI-8226 leukemia): 3.87 µM | TGI (RPMI-8226 leukemia): 63.5 µM | GI50 (OVCAR-8 ovarian): 7.28 µM | TGI (OVCAR-8 ovarian): 27.8 µM | GI50 (DU-145 prostate): 11.9 µM | TGI (DU-145 prostate): > 100 µM | GI50 (MCF7 breast): 5.16 µM | TGI (MCF7 breast): 26 µM | GI50 (HCC-2998 colon): 6.46 µM | TGI (HCC-2998 colon): 19.8 µM | GI50 (SK-MEL-28 melanoma): 4.6 µM | TGI (SK-MEL-28 melanoma): 28.3 µM | GI50 (HCT-116 colon): 4.46 µM | TGI (HCT-116 colon): 17.1 µM | GI50 (SR leukemia): 3.77 µM | TGI (SR leukemia): > 100 µM | GI50 (SN12C renal): 6.89 µM | TGI (SN12C renal): 33 µM | GI50 (SNB-19 CNS): 7.61 µM | TGI (SNB-19 CNS): 33.7 µM | GI50 (CAKI-1 renal): 10.2 µM | TGI (CAKI-1 renal): 45.2 µM | GI50 (NCI-H226 lung): 10.9 µM | TGI (NCI-H226 lung): 30.6 µM | GI50 (NCI-H522 lung): 3.18 µM | TGI (NCI-H522 lung): 12.1 µM | GI50 (SK-OV-3 ovarian): 15.1 µM | TGI (SK-OV-3 ovarian): 37.9 µM | GI50 (MDA-MB-468 breast): 6.83 µM | TGI (MDA-MB-468 breast): 38.8 µM | GI50 (KM12 colon): 5.71 µM | TGI (KM12 colon): 19.3 µM | GI50 (MOLT-4 leukemia): 4.26 µM | TGI (MOLT-4 leukemia): 22.9 µM | GI50 (NCI-H460 lung): 6.67 µM | TGI (NCI-H460 lung): 21 µM | GI50 (SK-MEL-5 melanoma): 3.41 µM | TGI (SK-MEL-5 melanoma): 13.5 µM | GI50 (NCI/ADR-RES ovarian): 7.45 µM | TGI (NCI/ADR-RES ovarian): 26.8 µM | GI50 (MDA-MB-435): 7.05 µM | TGI (MDA-MB-435): 56.4 µM | GI50 (EKVX NSCLC): 5.47 µM | TGI (EKVX NSCLC): 30.8 µM | GI50 (HL-60(TB) leukemia): 6.31 µM | TGI (HL-60(TB) leukemia): 31.8 µM | GI50 (SNB-75 CNS): 15.5 µM | TGI (SNB-75 CNS): 45.6 µM | GI50 (RXF 393 renal): 10.3 µM | TGI (RXF 393 renal): 24.7 µM | GI50 (HOP-62 NSCLC): 11.7 µM | TGI (HOP-62 NSCLC): 28.3 µM | GI50 (UACC-62 melanoma): 3.64 µM | TGI (UACC-62 melanoma): 14.4 µM | GI50 (ACHN renal): 6.42 µM | TGI (ACHN renal): 52.7 µM | GI50 (OVCAR-5 ovarian): 18.5 µM | TGI (OVCAR-5 ovarian): 36 µM | GI50 (HS 578T breast): 7.95 µM | TGI (HS 578T breast): 36.1 µM | GI50 (SW-620 colon): 9.22 µM | TGI (SW-620 colon): 25 µM | GI50 (M14 melanoma): 10.1 µM | TGI (M14 melanoma): 35.1 µM | GI50 (OVCAR-4 ovarian): 7 µM | TGI (OVCAR-4 ovarian): > 100 µM
